In assay [1] the test system is SK-MEL-3 tumor cells. The experiment in a line: Cell growth inhibition assay (CellTiter-Glo), SK-MEL-3.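 Note: human melanoma cells grown with compound for 3 days in 0.2% DMSO, total ATP read by luminescence as proxy for cell number, growth inhibition versus DMSO-treated wells.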 The settings on record: Homo sapiens, SK-MEL3, 72 h, read-out: Activity in SK-MEL-3 Tumor Cells. For orientation: In ATP-based viability assays light output follows the ATP content of the culture.
Protocol: (§9) Cell Growth Inhibition Assays Human colon tumor cells (Colo205) were cultured in RPMI (Mediatech 50-020-PB) containing 10% FBS and 1% penicillin-streptomycin. […] Human melanoma cancer cells (A375-F11S) were cultured in RPMI (Mediatech 50-020-PB) containing 10% FBS, 1% sodium pyruvate, and 1% penicillin-streptomycin. Human colon cancer cells (HT-29) were cultured in high glucose DMEM (Mediatech 50-013-PB) containing 10% FBS and 1% penicillin-streptomycin. Human melanoma cancer cells (SK-MEL-3) were cultured in McCoy's 5A (50-025-PB) containing 15% FBS, and 1% penicillin-streptomycin. All cell lines were maintained at 37° C. in a humidified 5% CO2, 95% air incubator.
(§10) The next day, compounds were diluted as follows: For 96-well assays, 13.5 μl of compound in DMSO were diluted using nine (9) serial 1:3 dilutions of 4.5 μl in 9 μl of DMSO. Medium (270 μl/well of RPMI with 10% FBS and 1% penicillin-streptomycin) was added to the plates. Aliquots (7 μl) were added to cells in the final assay giving a final DMSO concentration of 0.2%. For 384-well assays, 15 μl of compound in DMSO were diluted using nine (9) serial 1:3 dilutions of 5 μl in 10 μl of DMSO, followed by a further dilution of 5 μl of compound with 95 μl of medium, of which 2 μl are added to cells in the final assay giving a final DMSO concentration of 0.2%. Cells were incubated at 37° C., 5% CO2 for 3 days.
(§11) Total ATP was measured (as a surrogate estimate of cell number) using CellTiter-Glo® (Promega G7571) reagent. Briefly, plates were removed from the incubator and allowed to equilibrate to room temperature for 30 minutes. CellTiter-Glo® (25 μl or 55 μl for 384-well or 96-well assays, respectively) reagent was added to each well and plates were shaken on an orbital plate shaker for 2 minutes. Plates were incubated without shaking for a further 30 minutes and read on an LJL Analyst GT reader in luminometer mode with an integration time of 0.5 seconds per well. Percent inhibition of cell growth was calculated relative to DMSO vehicle-treated control wells.
The test system of assay [2] is HT-29 tumor cells. The experiment in a line: Cell growth inhibition assay (CellTiter-Glo), HT-29.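 Note: ATP content read by luminescence as proxy for cell number, growth inhibition versus DMSO vehicle wells, 0.2% DMSO final, nine serial threefold compound dilutions.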 The settings on record: Homo sapiens, HT-29, 72 h, read-out: Activity in HT-29 Tumor Cells.
Assay [3] has as its system SK-MEL-28 tumor cells. In words: Cell growth inhibition assay (CellTiter-Glo), SK-MEL-28.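 Note: luminescent total ATP as a proxy for cell number, threefold serial dilutions at 0.2% DMSO, percent growth inhibition versus DMSO vehicle control wells.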 The settings on record: Homo sapiens, SK-MEL-28, 72 h, read-out: Activity in SK-MEL-28 Tumor Cells.
Assay [4] deals with A375P tumor cells. The experiment in a line: Cell growth inhibition assay (CellTiter-Glo), A375P.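 Note: total ATP luminescence used as proxy for cell number, serial threefold compound dilutions at 0.2% DMSO, growth inhibition expressed versus DMSO vehicle-treated wells.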 The settings on record: Homo sapiens, 72 h, read-out: Activity in A375P Tumor Cells.
The test system of assay [5] is Colo205 tumor cells. In words: Cell growth inhibition assay (CellTiter-Glo), Colo205.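 Note: growth measured via total ATP luminescence (CellTiter-Glo) as a proxy for cell number, inhibition expressed against DMSO-treated control wells, 3-day exposure at 0.2% final DMSO.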 The settings on record: Homo sapiens, COLO 205, 72 h, read-out: Activity in Colo205 Tumor Cells.
Protocol: as §9, §10, §11
In assay [6] the target is B-Raf (Homo sapiens, UniProt P15056). The experiment in a line: B-Raf Accelerated MEK ATPase assay (BRAMA). The format is biochemical. The settings on record: BRAMA enzyme assay; class by pIC50; read-out: B-Raf Activity. The gist of the method: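 B-Raf activity read as intrinsic MEK ATPase: catalytic activated RAF with non-phosphorylated MEK drives ADP formation, coupled through pyruvate kinase and lactate dehydrogenase to NADH oxidation, independent of ERK phosphorylation.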
Chain of B-Raf (P15056 whole entry): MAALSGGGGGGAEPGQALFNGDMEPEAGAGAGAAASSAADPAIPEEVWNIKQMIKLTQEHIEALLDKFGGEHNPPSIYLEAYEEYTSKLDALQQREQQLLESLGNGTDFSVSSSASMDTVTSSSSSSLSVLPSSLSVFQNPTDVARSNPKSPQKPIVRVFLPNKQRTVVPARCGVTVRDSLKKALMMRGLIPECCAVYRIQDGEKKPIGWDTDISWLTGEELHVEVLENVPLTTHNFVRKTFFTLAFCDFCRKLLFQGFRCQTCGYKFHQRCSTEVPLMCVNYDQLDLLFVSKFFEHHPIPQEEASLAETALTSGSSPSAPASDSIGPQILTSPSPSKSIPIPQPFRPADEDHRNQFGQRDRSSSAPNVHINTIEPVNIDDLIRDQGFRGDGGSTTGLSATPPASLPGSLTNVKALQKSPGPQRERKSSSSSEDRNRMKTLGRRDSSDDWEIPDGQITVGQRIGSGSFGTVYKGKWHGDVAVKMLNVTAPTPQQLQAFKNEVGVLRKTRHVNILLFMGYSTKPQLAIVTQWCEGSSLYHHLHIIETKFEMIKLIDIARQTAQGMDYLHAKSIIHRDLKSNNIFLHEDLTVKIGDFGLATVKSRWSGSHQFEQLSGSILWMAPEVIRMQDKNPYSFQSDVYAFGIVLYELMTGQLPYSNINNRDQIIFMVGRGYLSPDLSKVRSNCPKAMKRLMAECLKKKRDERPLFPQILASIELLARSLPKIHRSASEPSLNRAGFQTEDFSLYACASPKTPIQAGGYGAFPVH

Assay [7] has as its target ErbB2 (Homo sapiens, UniProt P04626). In words: ErbB2 kinase autophosphorylation assay (peptide phosphorylation, HTRF). The assay is classed as biochemical. The settings on record: 10 nM ErbB2, HTRF; class by pIC50. The procedure: (§1) A selection of compounds of the present invention were tested for inhibitory activity against EGFR and ErbB2 kinases in autophosphorylation assays.
(§2) The method measures the ability of the isolated enzyme to catalyse the transfer of the gamma-phosphate from ATP onto the tyrosine residue of a biotinylated synthetic peptide referenced “Peptide C” in Brignola, P. S., et al, (2002) J. Biol. Chem. 277(2):1576-1585. The extent of tyrosine phosphorylation was measured using an anti-phosphotyrosine antibody, and quantified by homogenous time-resolved fluorescence (HTRF).
(§3) Reactions were performed in black 384-well polystyrene flat-bottom plates in a final volume of 20 ul. Assays were performed by adding 10 μl of each of the following solutions, substrate Mix and enzyme mix: The Substrate mix contained 100 mM 3-[N-morpholino]propanesulfonic acid (MOPS) (pH 7.5), 2 mM MnCl2, 20 μM ATP, 0.01% Tween-20, 0.1 mg/mL (BSA), 0.8 uM peptide substrate, and 1 mM dithiothreitol. The enzyme mix contained 100 mM MOPS (pH7.5); 0.01% Tween-20; 0.1 mg/mL BSA, and either 0.8 nM EGFR, 10 nM ErbB2, or 1 nM ErbB4
(§4) The enzyme mix was added to the compound plates and the plates were incubated at 20° C. for 1 hour. The reactions were allowed to proceed for 90 minutes at 20° C. The reactions were then terminated by the addition of 20 μl 100 mM EDTA to each well. 40 μl/well of HTRF detection mix were added to the assay plates. The final concentrations of the detection reagents were: 100 mM HEPES (pH7.5), 0.1 mg/mL BSA, 15 nM streptavidin-labeled allophycocyanin (PerkinElmer), and 1 nM europium-labeled anti-phosphotyrosine antibody (PerkinElmer). Assay plates were left unsealed and were counted in a Wallac Multilabel Counter 1420 (PerkinElmer).
(§5) Compounds under analysis were dissolved in Me2SO to 1.0 mM and serially diluted 1 to 3 with Me2SO through twelve dilutions. 1 μl of each concentration was transferred to the corresponding well of an assay plate. This creates a final compound concentration range from 0.00027 to 47.6 μM.
(§6) The data for dose responses were plotted as % Inhibition calculated with the data reduction formula 100*(1−(U1−C2)/(C1−C2)) versus concentration of compound where U is the unknown value, C1 is the average control value obtained for 4.76% DMSO, and C2 is the average control value obtained for 0.035 M EDTA. Data were fitted with a curve described by:
(§7) where Vmax is the upper asymptote, Y2 is the Y intercept, and K is the IC50. The results for each compound were recorded as pIC50s, calculated as follows: […]
(§8) In the following table: • “+” indicates no pIC50 measurement greater than 6 against EGFR or ErbB2, • “++” indicates at least one pIC50 measurement greater than 6 against EGFR or ErbB2 but no measurement greater than pIC50 of 7; and • “+++” indicates at least one pIC50 measurement of greater than 7 against EGFR or ErbB2.

Assay [8] has as its target EGFR (Homo sapiens, UniProt P00533). In words: EGFR kinase autophosphorylation assay (peptide phosphorylation, HTRF). The assay is classed as biochemical. The settings on record: 0.8 nM EGFR, class by pIC50. The procedure: as §1, §2, §3, §4, §5, §6, §7, §8
In general terms: Time-resolved FRET reads energy transfer from a long-lived donor to a nearby acceptor.

Counter-ions that a name gives are not always drawn.

Chain of EGFR (P00533 25-1210): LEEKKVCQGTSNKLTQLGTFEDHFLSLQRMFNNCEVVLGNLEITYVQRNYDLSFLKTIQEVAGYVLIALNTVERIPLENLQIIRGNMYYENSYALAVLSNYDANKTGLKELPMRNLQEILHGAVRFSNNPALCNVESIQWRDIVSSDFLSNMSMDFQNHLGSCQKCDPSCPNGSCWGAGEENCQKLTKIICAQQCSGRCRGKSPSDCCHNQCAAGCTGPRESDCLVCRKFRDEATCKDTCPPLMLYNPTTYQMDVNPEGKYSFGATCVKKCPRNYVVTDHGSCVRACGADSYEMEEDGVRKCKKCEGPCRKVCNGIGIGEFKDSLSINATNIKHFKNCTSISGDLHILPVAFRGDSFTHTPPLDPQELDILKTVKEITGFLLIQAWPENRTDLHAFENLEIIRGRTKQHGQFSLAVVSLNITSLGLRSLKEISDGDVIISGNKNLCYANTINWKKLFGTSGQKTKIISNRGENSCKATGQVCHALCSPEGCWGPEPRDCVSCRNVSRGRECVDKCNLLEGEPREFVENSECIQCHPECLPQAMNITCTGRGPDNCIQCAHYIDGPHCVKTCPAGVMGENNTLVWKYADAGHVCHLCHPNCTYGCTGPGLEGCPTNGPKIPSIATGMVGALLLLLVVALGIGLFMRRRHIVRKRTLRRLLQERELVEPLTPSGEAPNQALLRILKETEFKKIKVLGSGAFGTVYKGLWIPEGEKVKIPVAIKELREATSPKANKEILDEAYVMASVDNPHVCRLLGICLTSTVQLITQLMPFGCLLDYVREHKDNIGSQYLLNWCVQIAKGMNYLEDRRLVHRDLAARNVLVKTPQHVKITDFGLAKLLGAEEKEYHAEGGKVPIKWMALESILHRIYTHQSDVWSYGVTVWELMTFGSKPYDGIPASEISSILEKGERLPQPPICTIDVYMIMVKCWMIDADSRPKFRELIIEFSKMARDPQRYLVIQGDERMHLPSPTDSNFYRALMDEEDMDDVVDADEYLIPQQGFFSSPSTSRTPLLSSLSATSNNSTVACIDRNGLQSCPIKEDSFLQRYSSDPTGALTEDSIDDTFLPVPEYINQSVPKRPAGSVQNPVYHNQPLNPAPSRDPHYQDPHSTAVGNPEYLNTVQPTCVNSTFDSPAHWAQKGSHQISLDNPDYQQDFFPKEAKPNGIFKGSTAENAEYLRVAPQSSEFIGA
Chain of ErbB2 (P04626 23-1255): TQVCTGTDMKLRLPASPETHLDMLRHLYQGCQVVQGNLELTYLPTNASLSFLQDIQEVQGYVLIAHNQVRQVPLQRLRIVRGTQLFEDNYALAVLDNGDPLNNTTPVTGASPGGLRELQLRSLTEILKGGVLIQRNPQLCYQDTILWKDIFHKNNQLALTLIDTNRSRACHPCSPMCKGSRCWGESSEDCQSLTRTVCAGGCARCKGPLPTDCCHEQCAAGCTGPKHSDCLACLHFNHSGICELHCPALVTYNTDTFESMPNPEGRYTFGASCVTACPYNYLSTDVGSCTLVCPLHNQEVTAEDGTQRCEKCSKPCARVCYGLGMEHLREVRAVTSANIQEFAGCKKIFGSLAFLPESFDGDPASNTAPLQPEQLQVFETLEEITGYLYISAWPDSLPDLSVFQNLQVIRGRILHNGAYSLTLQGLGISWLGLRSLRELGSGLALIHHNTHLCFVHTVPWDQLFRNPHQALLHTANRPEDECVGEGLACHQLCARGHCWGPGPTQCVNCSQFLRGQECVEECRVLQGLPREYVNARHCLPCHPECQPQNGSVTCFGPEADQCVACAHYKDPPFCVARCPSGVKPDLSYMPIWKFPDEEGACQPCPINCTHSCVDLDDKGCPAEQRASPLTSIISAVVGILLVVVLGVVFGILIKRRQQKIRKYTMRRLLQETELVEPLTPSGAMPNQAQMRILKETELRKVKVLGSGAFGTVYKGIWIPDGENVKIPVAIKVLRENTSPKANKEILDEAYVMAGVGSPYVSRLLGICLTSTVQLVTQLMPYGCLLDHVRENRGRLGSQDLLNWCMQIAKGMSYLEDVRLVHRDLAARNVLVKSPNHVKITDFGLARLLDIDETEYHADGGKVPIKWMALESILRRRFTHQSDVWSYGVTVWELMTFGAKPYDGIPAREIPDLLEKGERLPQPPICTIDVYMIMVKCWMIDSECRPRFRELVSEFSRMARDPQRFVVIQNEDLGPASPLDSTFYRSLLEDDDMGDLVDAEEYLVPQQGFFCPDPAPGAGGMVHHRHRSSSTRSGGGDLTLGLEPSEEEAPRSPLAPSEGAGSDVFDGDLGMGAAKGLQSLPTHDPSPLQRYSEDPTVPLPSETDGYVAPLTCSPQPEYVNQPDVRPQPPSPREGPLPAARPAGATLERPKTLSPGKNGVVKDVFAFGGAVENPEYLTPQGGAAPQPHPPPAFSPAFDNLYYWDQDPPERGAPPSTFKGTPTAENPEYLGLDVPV

In the case of `CCNc1nc(-c2cccc(Cl)c2)c(-c2ccnc(Nc3ccc(OCCN(C)C)c(Cl)c3)n2)s1` [Example 46, N-(3-Chloro-4-{[2-(dimethylamino)ethyl]oxy}phenyl)-4-[4-(3-chlorophenyl)-2-(ethylamino)-1,3-thiazol-5-yl]-2-pyrimidinamine], the IC50 is less than 500 nM in assay [1]; less than 500 nM in assay [2]; less than 500 nM in assay [3]; less than 500 nM in assay [4]; less than 500 nM in assay [5]; less than 100 nM in assay [6]. For the same compound, the IC50 in assay [7] and in assay [8] was less than 100 nM in each case.

`Fc1cc(Nc2nccc(-c3sc(N4CCCC4)nc3-c3cccc(Cl)c3)n2)ccc1OCCN1CCCC1` [Example 103]: the IC50 was less than 500 nM in assay [1]; less than 500 nM in assay [2]; 500 to 5000 nM in assay [3]; 500 to 5000 nM in assay [4]; 500 to 5000 nM in assay [5]; less than 100 nM in assay [6]. Besides, the IC50 in assay [7] was less than 100 nM; in assay [8], 100 to 1000 nM.

As for `CCNc1nc(-c2cc(OC)cc(OC)c2)c(-c2ccnc(Nc3ccc(N4CCOCC4)c(F)c3)n2)s1` [Example 7, 4-[4-[3,5-Bis(methyloxy)phenyl]-2-(ethylamino)-1,3-thiazol-5-yl]-N-[3-fluoro-4-(4-morpholinyl)phenyl]-2-pyrimidinamine], the IC50 in assay [1] is less than 500 nM; in assay [2], less than 500 nM; in assay [3] it was less than 500 nM; in assay [4], 500 to 5000 nM; in assay [5], less than 500 nM; in assay [6], less than 100 nM. Moreover, the IC50 in assay [7] and in assay [8] was more than 1000 nM in each case.

Take `CCNc1nc(-c2cc(C)cc(OC)c2)c(-c2ccnc(Nc3ccc4c(c3)CCN4C(C)=O)n2)s1` [Example 30, 1-Acetyl-N-(4-{2-(ethylamino)-4-[3-methyl-5-(methyloxy)phenyl]-1,3-thiazol-5-yl}-2-pyrimidinyl)-2,3-dihydro-1H-indol-5-amine]: the IC50 in assay [1] was less than 500 nM; in assay [2], less than 500 nM; in assay [3], less than 500 nM; in assay [4], less than 500 nM; in assay [5], less than 500 nM; in assay [6], less than 100 nM. The IC50 in assay [7] and in assay [8] was more than 1000 nM each time.

Take `CCc1nc(-c2cc(O)cc(OC)c2)c(-c2ccnc(Nc3ccc(OC4CCN(CCS(C)(=O)=O)CC4)c(F)c3)n2)s1` [Example 74, trifluoroacetic acid salt]: the IC50 in assay [1] was less than 500 nM; in assay [2] it was less than 500 nM; in assay [3], less than 500 nM; in assay [4], less than 500 nM; in assay [5], less than 500 nM; in assay [6], less than 100 nM. The IC50 in assay [7] and in assay [8] was more than 1000 nM in each case.

On to `COc1cc(-c2nc(N3CCCC3)sc2-c2ccnc(Nc3ccc(OCCN4CCCC4)c(F)c3)n2)ccc1Cl` [Example 78, 4-[4-[4-Chloro-3-(methyloxy)phenyl]-2-(1-pyrrolidinyl)-1,3-thiazol-5-yl]-N-(3-fluoro-4-{[2-(1-pyrrolidinyl)ethyl]oxy}phenyl)-2-pyrimidinamine], for which the IC50 was 500 to 5000 nM in assay [3]; 500 to 5000 nM in assay [5]; less than 100 nM in assay [6]; 100 to 1000 nM in assay [7]; 100 to 1000 nM in assay [8].

In the case of `CCNc1nc(-c2cc(C)cc(OC)c2)c(-c2ccnc(Nc3ccc(N4CCS(=O)(=O)CC4)nc3)n2)s1` [Example 34, N-[6-(1,1-Dioxido-4-thiomorpholinyl)-3-pyridinyl]-4-{2-(ethylamino)-4-[3-methyl-5-(methyloxy)phenyl]-1,3-thiazol-5-yl}-2-pyrimidinamine], the IC50 in assay [1] is less than 500 nM; in assay [2], less than 500 nM; in assay [3], less than 500 nM; in assay [4], less than 500 nM; in assay [5] it was less than 500 nM; in assay [6] it was less than 100 nM. Besides, the IC50 in assay [7] and in assay [8] was more than 1000 nM in each case.

In the case of `COc1cc(C)cc(-c2nc(C(C)C)sc2-c2ccnc(Nc3ccc(N4CCOCC4)nc3)n2)c1` [Example 61, 4-{2-(1-Methylethyl)-4-[3-methyl-5-(methyloxy)phenyl]-1,3-thiazol-5-yl}-N-[6-(4-morpholinyl)-3-pyridinyl]-2-pyrimidinamine], the IC50 is less than 500 nM in assay [1]; less than 500 nM in assay [2]; 500 to 5000 nM in assay [3]; less than 500 nM in assay [4]; less than 500 nM in assay [5]; less than 100 nM in assay [6]. For the same compound, the IC50 in assay [7] and in assay [8] was more than 1000 nM throughout.

Regarding `CCNc1nc(-c2cc(OC)cc(OC)c2)c(-c2ccnc(Nc3cc(F)c(N4CCN(CCS(C)(=O)=O)CC4)c(F)c3)n2)o1` [Example 91], the IC50 in assay [1] was less than 500 nM; in assay [2], 500 to 5000 nM; in assay [3], 500 to 5000 nM; in assay [4] it was 500 to 5000 nM; in assay [5], less than 500 nM; in assay [6], less than 100 nM. In addition, the IC50 in assay [7] and in assay [8] was more than 1000 nM in each case.

For `COc1cc(C)cc(-c2nc(C(C)C)sc2-c2ccnc(Nc3ccc(N4CCN5CCCCC5C4)c(F)c3)n2)c1` (stereo not drawn) [Example 113], the IC50 in assay [3] was 500 to 5000 nM; in assay [5] it was 500 to 5000 nM; in assay [6] it was less than 100 nM; in assay [7], more than 1000 nM; in assay [8] it was more than 1000 nM.

With `CCNc1nc(-c2cc(OC)cc(OC)c2)c(-c2ccnc(Nc3ccc(N4CCN5CCOC[C@H]5C4)nc3)n2)o1` [Example 135], the IC50 in assay [3] is more than 5000 nM; in assay [5], 500 to 5000 nM; in assay [6], less than 100 nM; in assay [7], more than 1000 nM; in assay [8], more than 1000 nM.

For the compound `CCNc1nc(-c2cc(C)cc(OC)c2)c(-c2ccnc(Nc3ccc(N4CCN(C(C)=O)CC4)nc3)n2)o1` [Example 70, N-[6-(4-Acetyl-1-piperazinyl)-3-pyridinyl]-4-{2-(ethylamino)-4-[3-methyl-5-(methyloxy)phenyl]-1,3-oxazol-5-yl}-2-pyrimidinamine], the IC50 in assay [1] was less than 500 nM; in assay [2], less than 500 nM; in assay [4] it was less than 500 nM; in assay [7], more than 1000 nM; in assay [8] it was more than 1000 nM.

On to `CCNc1nc(-c2cccc(OC)c2)c(-c2ccnc(Nc3ccc(N4CCOCC4)nc3)n2)s1` [Example 42, 4-{2-(Ethylamino)-4-[3-(methyloxy)phenyl]-1,3-thiazol-5-yl}-N-[6-(4-morpholinyl)-3-pyridinyl]-2-pyrimidinamine], for which the IC50 is less than 500 nM in assay [1]; less than 500 nM in assay [2]; 500 to 5000 nM in assay [3]; less than 500 nM in assay [4]; less than 500 nM in assay [5]; less than 100 nM in assay [6].

For the origin of these results see patent US20110190280A1, “Thiazole And Oxazole Kinase Inhibitors” (priority 2007, published 2011).
